Measurements taken from patent US8231888B2, “Isoxazolines for controlling invertebrate pests” (priority 2005, dated 2012).

Experiments:
Type in all cases: in vivo
[1] = test system: western flower thrips (Frankliniella occidentalis); test: Test D: control of western flower thrips on Soleil bean plant, contact and/or systemic; conditions: asterisk: observed only at 250 ppm; 6 days, 25° C.
Description: (§1) Test compounds were formulated using a solution containing 10% acetone, 90% water and 300 ppm X-77™ Spreader Lo-Foam Formula non-ionic surfactant containing alkylarylpolyoxyethylene, free fatty acids, glycols and isopropanol (Loveland Industries, Inc. Greeley, Colo., USA). The formulated compounds were applied in 1 mL of liquid through a SUJ2 atomizer nozzle with 1/8 JJ custom body (Spraying Systems Co. Wheaton, Ill., USA) positioned 1.27 cm (0.5 inches) above the top of each test unit. All experimental compounds in these tests were sprayed at 250 and/or 50 ppm, and the test was replicated three times. After spraying of the formulated test compound, each test unit was allowed to dry for 1 h and then a black, screened cap was placed on top. The test units were held for 6 days in a growth chamber at 25° C. and 70% relative humidity. Plant feeding damage was then visually assessed based on foliage consumed and a pest mortality rating was also counted and calculated for each test unit.
For evaluating control of the western flower thrips (Frankliniella occidentalis) through contact and/or systemic means, the test unit consisted of a small open container with a 5-7 day old Soleil Bean plant inside. Test compounds were formulated and sprayed at 250 and/or 50 ppm, and the test was replicated three times as described for Test A. After spraying, the test units were allowed to dry for 1 hour and then 22-27 adult thrips were added to each unit and then a black, screened cap was placed on top. The test units were held for 6 days at 25° C. and 45-55% relative humidity. A mortality rating was assessed along with a plant damage rating for each test unit.

[2] = test system: fall armyworm (Spodoptera frugiperda); test: Test B: control of fall armyworm on corn (maize) plant, foliar spray
Description: as §1
For evaluating control of fall armyworm (Spodoptera frugiperda) the test unit consisted of a small open container with a 4-5-day-old corn (maize) plant inside. This was pre-infested (using a core sampler) with 10-15 1-day-old larvae on a piece of insect diet. Test compounds were formulated and sprayed at 250 and/or 50 ppm as described for Test A and replicated three times. After spraying, the test units were maintained in a growth chamber and then the control efficacy was rated for each test unit as described for Test A.

[3] = test system: diamondback moth (Plutella xylostella); test: Test A: control of diamondback moth on radish plant, foliar spray; conditions: 6 days, 25° C.
Description: For evaluating control of diamondback moth (Plutella xylostella) the test unit consisted of a small open container with a 12-14-day-old radish plant inside. This was pre-infested with about 50 neonate larvae that were dispensed into the test unit via corn cob grits using a bazooka inoculator. The larvae moved onto the test plant after being dispensed into the test unit.
as §1

[4] = sprayed at 250 and/or 50 ppm, no asterisk (not limited to 250 ppm)
[5] = asterisk: observed only at 250 ppm

Row | Compound | control efficacy (20% or less feeding damage or 80% or more mortality) [2, 4] | control efficacy (20% or less feeding damage or 80% or more mortality) [3, 4] | further results
1 | CC(NC(=O)c1ccc(C2=NOC(c3cc(Cl)cc(Cl)c3)(C(F)(F)F)C2)c2ccccc12)c1ccccc1 (mixture of isomers) [Compound 15] | very good to excellent levels of control efficacy | very good to excellent levels of control efficacy | control efficacy (20% or less feeding damage or 80% or more mortality) [1]: very good to excellent levels of control efficacy
2 | CC(NC(=O)c1ccc(C2=NOC(c3cc(Cl)cc(Cl)c3)(C(F)(F)F)C2)c2ccccc12)c1ccc2ccccc2c1 (mixture of isomers) [Compound 27] | – | very good to excellent levels of control efficacy | –
3 | CC(NC(=O)c1ccc(C2=NOC(c3cc(Cl)cc(Cl)c3)(C(F)(F)F)C2)c2ccccc12)c1ccc([N+](=O)[O-])cc1 (mixture of isomers) [Compound 28] | very good to excellent levels of control efficacy | very good to excellent levels of control efficacy | –
4 | COC(=O)C(NC(=O)c1ccc(C2=NOC(c3cc(Cl)cc(Cl)c3)(C(F)(F)F)C2)c2ccccc12)c1ccccc1 (mixture of isomers) [Compound 29] | very good to excellent levels of control efficacy | very good to excellent levels of control efficacy | –
5 | CC(NC(=O)c1ccc(C2=NOC(c3cc(Cl)cc(Cl)c3)(C(F)(F)F)C2)c2ccccc12)c1ccc(Cl)cc1 (mixture of isomers) [Compound 30] | very good to excellent levels of control efficacy | very good to excellent levels of control efficacy | –
6 | CC(NC(=O)c1ccc(C2=NOC(c3cc(Cl)cc(Cl)c3)(C(F)(F)F)C2)c2ccccc12)c1ccc(F)cc1 (mixture of isomers) [Compound 31] | very good to excellent levels of control efficacy | very good to excellent levels of control efficacy | –
7 | O=C(NCc1cccnc1)c1ccc(C2=NOC(c3cc(Cl)cc(Cl)c3)(C(F)(F)F)C2)c2ccccc12 (centres unmarked) [Compound 6] | very good to excellent levels of control efficacy | very good to excellent levels of control efficacy | –
8 | O=C(NCc1ccncc1)c1ccc(C2=NOC(c3cc(Cl)cc(Cl)c3)(C(F)(F)F)C2)c2ccccc12 (centres unmarked) [Compound 7] | very good to excellent levels of control efficacy | very good to excellent levels of control efficacy | –
9 | CCN(C)C(=O)c1ccc(C2=NOC(c3cc(Cl)cc(Cl)c3)(C(F)(F)F)C2)c2ccccc12 (centres unmarked) [Compound 9] | very good to excellent levels of control efficacy | very good to excellent levels of control efficacy | –
10 | CNC(=O)c1ccc(C2=NOC(c3cc(Cl)cc(Cl)c3)(C(F)(F)F)C2)c2ccccc12 (centres unmarked) [Compound 12] | very good to excellent levels of control efficacy | very good to excellent levels of control efficacy | –
11 | Cc1cc(C)cc(C2(C(F)(F)F)CC(c3ccc(C(=O)NCc4ccccn4)c4ccccc34)=NO2)c1 (centres unmarked) [Compound 22] | very good to excellent levels of control efficacy | very good to excellent levels of control efficacy | –
12 | O=C(NCc1ccccn1)c1ccc(C2=NOC(c3ccc(Cl)c(Cl)c3)(C(F)(F)F)C2)c2ccccc12 (centres unmarked) [Compound 23] | very good to excellent levels of control efficacy | very good to excellent levels of control efficacy | –
13 | O=C(NCc1ccccn1)c1ccc(C2=NOC(c3cccc(Cl)c3)(C(F)(F)F)C2)c2ccccc12 (centres unmarked) [Compound 25] | very good to excellent levels of control efficacy | – | –
14 | CCC(C)NC(=O)c1ccc(C2=NOC(c3cc(Cl)cc(Cl)c3)(C(F)(F)F)C2)c2ccccc12 (centres unmarked) [Compound 33] | – | – | control efficacy (20% or less feeding damage or 80% or more mortality) [1]: very good to excellent levels of control efficacy
15 | NC(=O)c1ccc(C2=NOC(c3cc(Cl)cc(Cl)c3)(C(F)(F)F)C2)c2ccccc12 (centres unmarked) [Compound 36] | very good to excellent levels of control efficacy | very good to excellent levels of control efficacy | –
16 | O=C(N[C@H]1CCCc2ccccc21)c1ccc(C2=NOC(c3cc(Cl)cc(Cl)c3)(C(F)(F)F)C2)c2ccccc12 (some centres unmarked) [Compound 38] | – | very good to excellent levels of control efficacy | –
17 | O=C(O)CNC(=O)c1ccc(C2=NOC(c3cc(Cl)cc(Cl)c3)(C(F)(F)F)C2)c2ccccc12 (centres unmarked) [Compound 43] | – | very good to excellent levels of control efficacy | –
18 | CC(=O)NNC(=O)c1ccc(C2=NOC(c3cc(Cl)cc(Cl)c3)(C(F)(F)F)C2)c2ccccc12 (centres unmarked) [Compound 45] | – | very good to excellent levels of control efficacy | control efficacy (20% or less feeding damage or 80% or more mortality) [1]: very good to excellent levels of control efficacy
19 | NCCNC(=O)c1ccc(C2=NOC(c3cc(Cl)cc(Cl)c3)(C(F)(F)F)C2)c2ccccc12 (centres unmarked) [Compound 47] | – | very good to excellent levels of control efficacy | control efficacy (20% or less feeding damage or 80% or more mortality) [1]: very good to excellent levels of control efficacy
20 | COC(=O)[C@H](C)NC(=O)c1ccc(C2=NOC(c3cc(Cl)cc(Cl)c3)(C(F)(F)F)C2)c2ccccc12 (some centres unmarked) [Compound 48] | – | very good to excellent levels of control efficacy | control efficacy (20% or less feeding damage or 80% or more mortality) [1]: very good to excellent levels of control efficacy
21 | NCCCCCCNC(=O)c1ccc(C2=NOC(c3cc(Cl)cc(Cl)c3)(C(F)(F)F)C2)c2ccccc12 (centres unmarked) [Compound 50] | – | very good to excellent levels of control efficacy | –
22 | O=C(NCc1ccccn1)c1ccc(C2=NOC(c3cc(Cl)cc(Cl)c3)(C(F)(F)F)C2)c2cccnc12 (centres unmarked) [Compound 103, 5-[5-(3,5-dichlorophenyl)-4,5-dihydro-5-(trifluoromethyl)-3-isoxazolyl]-N-(2-pyridinylmethyl)-8-quinolinecarboxamide] | very good to excellent levels of control efficacy | very good to excellent levels of control efficacy | –
23 | O=C(NCc1ccccn1)c1ccc(C2=NOC(c3cc(Cl)cc(Cl)c3)(C(F)(F)F)C2)c2cnccc12 (centres unmarked) [Compound 105] | – | very good to excellent levels of control efficacy | –
24 | O=C(NCc1ccccn1)c1ccc(C2=NOC(c3cc(Cl)cc(Cl)c3)(C(F)(F)F)C2)c2ncccc12 (centres unmarked) [Compound 106] | – | very good to excellent levels of control efficacy | control efficacy (20% or less feeding damage or 80% or more mortality) [2, 5]: very good to excellent levels of control efficacy
25 | O=C(NCC(F)(F)F)c1ccc(C2=NOC(c3cc(Cl)cc(Cl)c3)(C(F)(F)F)C2)c2ncccc12 (centres unmarked) [Compound 107] | – | – | control efficacy (20% or less feeding damage or 80% or more mortality) [2, 5]: very good to excellent levels of control efficacy; control efficacy (20% or less feeding damage or 80% or more mortality) [3, 5]: very good to excellent levels of control efficacy
26 | FC(F)(F)C1(c2cc(Cl)cc(Cl)c2)CC(c2ccc(C(=S)NCc3ccccn3)c3cccnc23)=NO1 (centres unmarked) [Compound 108] | – | – | control efficacy (20% or less feeding damage or 80% or more mortality) [3, 5]: very good to excellent levels of control efficacy
27 | FC(F)(F)CNC(=S)c1ccc(C2=NOC(c3cc(Cl)cc(Cl)c3)(C(F)(F)F)C2)c2ncccc12 (centres unmarked) [Compound 109] | – | – | control efficacy (20% or less feeding damage or 80% or more mortality) [3, 5]: very good to excellent levels of control efficacy
28 | O=C(NCC(F)(F)F)c1ccc(C2=NOC(c3ccnc(Cl)c3)(C(F)(F)F)C2)c2ccccc12 (centres unmarked) [Compound 201] | very good to excellent levels of control efficacy | very good to excellent levels of control efficacy | –
29 | O=C(NCc1ccccn1)c1ccc(C2=NOC(c3ccnc(Cl)c3)(C(F)(F)F)C2)c2ccccc12 (centres unmarked) [Compound 202] | very good to excellent levels of control efficacy | very good to excellent levels of control efficacy | –
